Test results as given in the kinase profiling compilation of Christmann-Franck et al. (2016).

Experiments:
Assay in all cases: radiometric filter-binding kinase assay, Kinase HotSpot
Settings in all cases: compound 0.5 µM; ATP 10 µM
[1] = biological target: AKT2 (human) (UniProt P31751)
[2] = biological target: CAMK4 (human) (UniProt Q16566)
[3] = biological target: CDK3 CCNE1 (human) (UniProt Q00526+P24864)
[4] = biological target: CDK4 CCND1 (human) (UniProt P24385+P11802)
[5] = biological target: CDK9 CCNK (human) (UniProt O75909+P50750)
[6] = biological target: CHEK1 (human) (UniProt O14757)
[7] = biological target: CSF1R (human) (UniProt P07333)
[8] = biological target: CSNK1G1 (human) (UniProt Q9HCP0)
[9] = biological target: CSNK2A2 (human) (UniProt P19784)
[10] = biological target: EPHA7 (human) (UniProt Q15375)
[11] = biological target: EPHA8 (human) (UniProt P29322)
[12] = biological target: EPHB3 (human) (UniProt P54753)
[13] = biological target: EPHB4 (human) (UniProt P54760)
[14] = biological target: FLT3 (human) (UniProt P36888)
[15] = biological target: IKBKE (human) (UniProt Q14164)
[16] = biological target: IRAK4 (human) (UniProt Q9NWZ3)
[17] = biological target: LRRK2 (human) (UniProt Q5S007)
[18] = biological target: LTK (human) (UniProt P29376)
[19] = biological target: MAP3K7 TAB1 (human) (UniProt O43318+Q15750)
[20] = tested on: MKNK1 (human), Q9BUB5 [T385D; 165-205 del]
[21] = biological target: MYO3B (human) (UniProt Q8WXR4)
[22] = biological target: NEK1 (human) (UniProt Q96PY6)
[23] = biological target: NEK9 (human) (UniProt Q8TD19)
[24] = biological target: NTRK1 (human) (UniProt P04629)
[25] = biological target: PAK2 (human) (UniProt Q13177)
[26] = biological target: PHKG2 (human) (UniProt P15735)
[27] = biological target: PIM1 (human) (UniProt P11309)
[28] = biological target: PKN2 (human) (UniProt Q16513)
[29] = biological target: PRKACA (human) (UniProt P17612)
[30] = biological target: PRKACG (human) (UniProt P22612)
[31] = biological target: PRKCE (human) (UniProt Q02156)
[32] = biological target: PRKD3 (human) (UniProt O94806)
[33] = biological target: PTK6 (human) (UniProt Q13882)
[34] = biological target: STK16 (human) (UniProt O75716)
[35] = biological target: STK3 (human) (UniProt Q13188)
[36] = biological target: STK38 (human) (UniProt Q15208)
[37] = biological target: TSSK1B (human) (UniProt Q9BXA7)
[38] = biological target: ULK2 (human) (UniProt Q8IYT8)
[39] = biological target: ULK3 (human) (UniProt Q6PHR2)
[40] = biological target: WEE1 (human) (UniProt P30291)
[41] = biological target: WNK3 (human) (UniProt Q9BYP7)
[42] = biological target: MAPK9 (human) (UniProt P45984)

Chain of CDK4 CCND1 (human) (P11802 whole entry, looked up): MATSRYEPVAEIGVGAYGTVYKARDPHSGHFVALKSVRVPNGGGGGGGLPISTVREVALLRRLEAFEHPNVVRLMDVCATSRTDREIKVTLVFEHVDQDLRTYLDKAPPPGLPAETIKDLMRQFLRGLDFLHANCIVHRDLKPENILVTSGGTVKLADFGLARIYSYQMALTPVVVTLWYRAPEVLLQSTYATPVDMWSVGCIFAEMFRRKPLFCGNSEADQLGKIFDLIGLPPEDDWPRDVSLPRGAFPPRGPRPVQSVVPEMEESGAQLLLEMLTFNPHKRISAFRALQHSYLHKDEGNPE
Chain of CDK4 CCND1 (human) (P24385 whole entry, looked up): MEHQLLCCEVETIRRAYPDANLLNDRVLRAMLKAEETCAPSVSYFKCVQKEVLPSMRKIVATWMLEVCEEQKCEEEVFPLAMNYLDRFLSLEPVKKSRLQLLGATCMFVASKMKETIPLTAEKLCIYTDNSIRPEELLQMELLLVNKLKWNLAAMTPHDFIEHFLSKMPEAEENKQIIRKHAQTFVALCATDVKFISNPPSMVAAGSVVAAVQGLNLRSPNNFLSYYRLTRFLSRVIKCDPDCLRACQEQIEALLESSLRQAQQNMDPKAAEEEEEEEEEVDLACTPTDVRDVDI
Chain of PHKG2 (human) (P15735 whole entry, looked up): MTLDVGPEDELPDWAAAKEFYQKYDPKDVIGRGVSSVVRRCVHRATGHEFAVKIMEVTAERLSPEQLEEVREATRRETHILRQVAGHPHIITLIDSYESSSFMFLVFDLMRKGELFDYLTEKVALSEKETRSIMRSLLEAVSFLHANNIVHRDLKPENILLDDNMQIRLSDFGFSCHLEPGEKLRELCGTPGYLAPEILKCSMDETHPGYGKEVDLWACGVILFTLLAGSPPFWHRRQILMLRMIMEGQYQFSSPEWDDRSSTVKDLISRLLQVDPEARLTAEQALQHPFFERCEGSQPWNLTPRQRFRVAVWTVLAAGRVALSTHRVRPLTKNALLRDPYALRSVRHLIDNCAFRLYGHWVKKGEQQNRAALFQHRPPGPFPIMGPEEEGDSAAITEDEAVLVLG
Chain of CDK9 CCNK (human) (O75909 whole entry, looked up): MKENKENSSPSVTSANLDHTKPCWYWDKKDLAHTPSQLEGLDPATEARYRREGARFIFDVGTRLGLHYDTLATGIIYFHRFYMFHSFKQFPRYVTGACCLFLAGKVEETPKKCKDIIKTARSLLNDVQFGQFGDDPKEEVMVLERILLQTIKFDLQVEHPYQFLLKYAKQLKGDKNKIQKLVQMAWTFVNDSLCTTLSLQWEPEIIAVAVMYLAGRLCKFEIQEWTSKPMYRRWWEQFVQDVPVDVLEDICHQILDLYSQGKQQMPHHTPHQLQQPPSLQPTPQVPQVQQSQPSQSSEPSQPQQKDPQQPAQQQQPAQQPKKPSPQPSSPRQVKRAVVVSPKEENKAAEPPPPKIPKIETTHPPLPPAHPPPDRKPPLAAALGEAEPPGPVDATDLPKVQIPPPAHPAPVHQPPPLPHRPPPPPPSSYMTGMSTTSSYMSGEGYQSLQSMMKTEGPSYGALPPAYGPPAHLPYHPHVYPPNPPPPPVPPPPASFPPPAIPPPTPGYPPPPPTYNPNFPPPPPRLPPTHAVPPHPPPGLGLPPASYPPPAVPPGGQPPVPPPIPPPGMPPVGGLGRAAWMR
Chain of CDK9 CCNK (human) (P50750 whole entry, looked up): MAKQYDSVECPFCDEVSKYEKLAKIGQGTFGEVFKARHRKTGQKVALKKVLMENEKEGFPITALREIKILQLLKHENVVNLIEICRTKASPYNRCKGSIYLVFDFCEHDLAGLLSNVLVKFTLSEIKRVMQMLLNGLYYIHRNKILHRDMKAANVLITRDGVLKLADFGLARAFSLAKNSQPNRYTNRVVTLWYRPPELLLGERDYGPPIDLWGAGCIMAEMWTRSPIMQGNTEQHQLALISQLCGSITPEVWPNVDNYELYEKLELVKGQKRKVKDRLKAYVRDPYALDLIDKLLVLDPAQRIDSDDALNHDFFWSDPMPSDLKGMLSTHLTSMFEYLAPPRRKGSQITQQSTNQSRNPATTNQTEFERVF
Chain of PRKACG (human) (P22612 whole entry, looked up): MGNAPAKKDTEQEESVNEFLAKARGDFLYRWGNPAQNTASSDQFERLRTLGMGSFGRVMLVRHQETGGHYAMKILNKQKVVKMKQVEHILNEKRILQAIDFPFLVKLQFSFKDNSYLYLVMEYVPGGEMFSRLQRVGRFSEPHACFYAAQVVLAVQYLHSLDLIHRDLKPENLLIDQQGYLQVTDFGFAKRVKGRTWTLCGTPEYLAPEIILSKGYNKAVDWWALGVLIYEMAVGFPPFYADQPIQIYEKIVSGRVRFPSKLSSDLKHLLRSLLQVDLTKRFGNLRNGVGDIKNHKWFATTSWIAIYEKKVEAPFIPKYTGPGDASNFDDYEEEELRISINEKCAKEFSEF
Chain of STK16 (human) (O75716 whole entry, looked up): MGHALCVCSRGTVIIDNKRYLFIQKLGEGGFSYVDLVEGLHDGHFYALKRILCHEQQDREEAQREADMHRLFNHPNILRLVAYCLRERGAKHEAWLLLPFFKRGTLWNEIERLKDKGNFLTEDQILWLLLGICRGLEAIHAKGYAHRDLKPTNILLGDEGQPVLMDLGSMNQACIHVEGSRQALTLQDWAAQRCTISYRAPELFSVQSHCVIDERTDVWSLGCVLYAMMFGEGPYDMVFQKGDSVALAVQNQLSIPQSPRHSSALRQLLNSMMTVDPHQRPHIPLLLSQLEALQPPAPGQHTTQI
Chain of PIM1 (human) (P11309 whole entry, looked up): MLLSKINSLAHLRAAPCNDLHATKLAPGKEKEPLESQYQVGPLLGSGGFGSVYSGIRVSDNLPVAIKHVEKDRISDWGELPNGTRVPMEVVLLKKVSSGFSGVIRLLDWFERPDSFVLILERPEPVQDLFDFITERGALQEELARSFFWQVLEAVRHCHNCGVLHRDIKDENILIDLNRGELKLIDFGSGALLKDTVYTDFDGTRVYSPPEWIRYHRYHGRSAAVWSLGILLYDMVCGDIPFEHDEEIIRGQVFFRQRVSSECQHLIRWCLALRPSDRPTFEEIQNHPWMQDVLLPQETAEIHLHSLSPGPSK
Chain of PRKCE (human) (Q02156 whole entry, looked up): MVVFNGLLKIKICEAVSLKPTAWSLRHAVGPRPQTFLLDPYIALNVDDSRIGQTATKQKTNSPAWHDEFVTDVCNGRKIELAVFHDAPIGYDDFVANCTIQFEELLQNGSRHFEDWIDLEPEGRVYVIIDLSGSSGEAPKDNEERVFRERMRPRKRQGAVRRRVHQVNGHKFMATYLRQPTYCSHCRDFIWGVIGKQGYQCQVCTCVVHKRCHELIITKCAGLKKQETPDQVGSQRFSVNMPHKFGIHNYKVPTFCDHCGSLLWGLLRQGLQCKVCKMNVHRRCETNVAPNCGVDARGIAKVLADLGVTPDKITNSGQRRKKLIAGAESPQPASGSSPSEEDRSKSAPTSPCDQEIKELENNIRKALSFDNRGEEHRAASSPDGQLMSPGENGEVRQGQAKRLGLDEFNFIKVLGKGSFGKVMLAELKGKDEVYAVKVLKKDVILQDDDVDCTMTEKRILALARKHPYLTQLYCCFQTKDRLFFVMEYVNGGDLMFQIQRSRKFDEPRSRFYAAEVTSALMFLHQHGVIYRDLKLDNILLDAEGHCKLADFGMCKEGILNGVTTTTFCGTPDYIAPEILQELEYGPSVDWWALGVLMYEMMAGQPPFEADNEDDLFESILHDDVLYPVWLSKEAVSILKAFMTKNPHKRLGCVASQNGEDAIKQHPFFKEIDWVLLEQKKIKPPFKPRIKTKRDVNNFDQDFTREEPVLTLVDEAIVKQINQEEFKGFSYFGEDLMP
Chain of STK38 (human) (Q15208 whole entry, looked up): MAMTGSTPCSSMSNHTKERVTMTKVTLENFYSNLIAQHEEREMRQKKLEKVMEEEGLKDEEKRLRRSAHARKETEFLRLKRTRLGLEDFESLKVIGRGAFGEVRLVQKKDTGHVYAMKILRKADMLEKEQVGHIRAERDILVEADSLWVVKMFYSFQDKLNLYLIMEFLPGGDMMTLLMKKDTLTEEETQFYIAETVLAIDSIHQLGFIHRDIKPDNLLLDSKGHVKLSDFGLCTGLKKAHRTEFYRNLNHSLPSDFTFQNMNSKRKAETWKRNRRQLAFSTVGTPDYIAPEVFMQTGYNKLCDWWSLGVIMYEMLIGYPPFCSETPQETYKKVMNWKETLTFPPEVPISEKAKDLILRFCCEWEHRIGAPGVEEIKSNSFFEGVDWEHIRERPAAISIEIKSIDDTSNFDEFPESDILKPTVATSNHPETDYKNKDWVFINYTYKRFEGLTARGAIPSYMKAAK
Chain of ULK3 (human) (Q6PHR2 whole entry, looked up): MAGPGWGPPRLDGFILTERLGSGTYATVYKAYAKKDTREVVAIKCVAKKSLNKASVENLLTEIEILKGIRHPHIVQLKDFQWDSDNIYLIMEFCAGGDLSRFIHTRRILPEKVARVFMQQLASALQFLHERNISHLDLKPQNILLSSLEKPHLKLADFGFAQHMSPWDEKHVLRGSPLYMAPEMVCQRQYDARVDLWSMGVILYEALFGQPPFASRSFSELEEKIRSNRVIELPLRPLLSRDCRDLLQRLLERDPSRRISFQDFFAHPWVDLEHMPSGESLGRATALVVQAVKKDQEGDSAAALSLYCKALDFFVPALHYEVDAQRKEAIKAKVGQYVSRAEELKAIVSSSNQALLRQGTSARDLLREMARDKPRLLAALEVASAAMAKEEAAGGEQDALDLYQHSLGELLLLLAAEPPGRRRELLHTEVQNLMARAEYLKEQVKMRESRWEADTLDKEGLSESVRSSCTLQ

COc1cc(Nc2c(C#N)cnc3cc(OCCCN4CCN(C)CC4)c(OC)cc23)c(Cl)cc1Cl
residual activity [1]: 104% | residual activity [2]: 90.7% | residual activity [3]: 91.9% | residual activity [4]: 97.1% | residual activity [5]: 102% | residual activity [6]: 38.9% | residual activity [7]: 43.1% | residual activity [8]: 95.7% | residual activity [9]: 108% | residual activity [10]: 77.2% | residual activity [11]: 10.5% | residual activity [12]: 49.4% | residual activity [13]: 12.5% | residual activity [14]: 30.3% | residual activity [15]: 75.4% | residual activity [16]: 63.2% | residual activity [17]: 30.1% | residual activity [18]: 57.7% | residual activity [19]: 28.3% | residual activity [20]: 96.9% | residual activity [21]: 40.3% | residual activity [22]: 15.2% | residual activity [23]: 94% | residual activity [24]: 106% | residual activity [25]: 69.4% | residual activity [26]: 103% | residual activity [27]: 99.2% | residual activity [28]: 105% | residual activity [29]: 73.8% | residual activity [30]: 99.2% | residual activity [31]: 78% | residual activity [32]: 42.2% | residual activity [33]: 93.1% | residual activity [34]: 85.1% | residual activity [35]: 13.9% | residual activity [36]: 85.1% | residual activity [37]: 79.2% | residual activity [38]: 92.2% | residual activity [39]: 100% | residual activity [40]: 40.5% | residual activity [41]: 91.8%

Fc1ccc(-c2nc3n(c2-c2ccncc2)CCS3)cc1
residual activity [1]: 95.9% | residual activity [2]: 99.8% | residual activity [3]: 97% | residual activity [4]: 114% | residual activity [5]: 101% | residual activity [6]: 95.9% | residual activity [7]: 103% | residual activity [8]: 86.6% | residual activity [9]: 105% | residual activity [10]: 76.3% | residual activity [11]: 88.2% | residual activity [12]: 96.1% | residual activity [13]: 88% | residual activity [14]: 94.7% | residual activity [15]: 101% | residual activity [16]: 109% | residual activity [17]: 96.7% | residual activity [18]: 102% | residual activity [19]: 92.2% | residual activity [42]: 90.6% | residual activity [20]: 102% | residual activity [21]: 102% | residual activity [22]: 103% | residual activity [23]: 102% | residual activity [24]: 99.5% | residual activity [25]: 84.7% | residual activity [26]: 104% | residual activity [27]: 104% | residual activity [28]: 96.3% | residual activity [30]: 116% | residual activity [31]: 97.7% | residual activity [32]: 88.2% | residual activity [33]: 84.8% | residual activity [34]: 106% | residual activity [35]: 111% | residual activity [36]: 88% | residual activity [37]: 119% | residual activity [38]: 106% | residual activity [39]: 79.2% | residual activity [40]: 92.2% | residual activity [41]: 105%

CS(=O)(=O)CCNCc1ccc(-c2ccc3ncnc(Nc4ccc(OCc5cccc(F)c5)c(Cl)c4)c3c2)o1
residual activity [1]: 105% | residual activity [2]: 107% | residual activity [3]: 94.6% | residual activity [4]: 94.8% | residual activity [5]: 103% | residual activity [6]: 100% | residual activity [7]: 106% | residual activity [8]: 105% | residual activity [9]: 101% | residual activity [10]: 95.6% | residual activity [11]: 99.5% | residual activity [13]: 94.1% | residual activity [14]: 92.6% | residual activity [15]: 94.9% | residual activity [16]: 91.5% | residual activity [17]: 76.9% | residual activity [18]: 100% | residual activity [19]: 89% | residual activity [42]: 98.1% | residual activity [20]: 94.5% | residual activity [21]: 96.1% | residual activity [22]: 71.8% | residual activity [23]: 100% | residual activity [24]: 99.2% | residual activity [25]: 102% | residual activity [26]: 99.5% | residual activity [27]: 99% | residual activity [28]: 92% | residual activity [29]: 96% | residual activity [30]: 110% | residual activity [31]: 98% | residual activity [32]: 88.6% | residual activity [33]: 103% | residual activity [34]: 97.1% | residual activity [35]: 93.7% | residual activity [36]: 101% | residual activity [37]: 79% | residual activity [38]: 104% | residual activity [39]: 106% | residual activity [40]: 97.5% | residual activity [41]: 104%
